In patent US11414450B1, “Aminoglycosides and uses thereof” (REVAGENIX, INC., priority 2017, dated 2022):

Legend:
E. coli ATCC 25922 = test: Minimum inhibitory concentration (broth microdilution, CLSI), E. coli ATCC 25922; format: cell-based; settings: geometric mean
Description: (§1) Minimum inhibitory concentrations for the example compounds herein are determined by the broth microdilution method in accordance with the Clinical and Laboratory Standards Institute (CLSI) guidelines. In brief, organism suspensions are adjusted to a 0.5 McFarland standard to yield a final inoculum between 3×10^5 and 7×10^5 colony-forming units (CFU)/mL. Compound dilutions and inocula are made in sterile, cation adjusted Mueller-Hinton Broth (Beckton Dickinson). The inoculum is prepared by suspension of a colony from an agar plate that is prepared the previous day. Bacteria are suspended in sterile saline and added to each assay plate to obtain a final concentration of 5×10^5 CFU/mL. An inoculum volume of 100 μL is added to wells containing 100 μL of broth with 2-fold serial dilutions of the compound. All inoculated microdilution trays are incubated in ambient air at 35° C. for 18-24 hours. Following incubation, the lowest concentration of the compound that prevents visible growth (OD 600 nm<0.05) is recorded as the MIC. […] Performance of the assay is monitored by the use of laboratory quality-control strains and a compound with a defined MIC spectrum (such as levofloxacin), in accordance with CLSI guidelines. Compounds are tested against multiple microbiologic panels. Panels include: 1) a multi-species primary screening panel that includes multiple defined AG-R mechanisms; 2) a panel of isogenic strains carrying different common mechanisms of AG-R that allows characterization of the SAR for AMEs, RMTs, and entry and efflux resistance mechanisms; and 3) panels of recent clinical isolates selected from Phase 3 studies and ongoing global surveillance.

E. coli efflux parent = test: MIC broth microdilution, E. coli efflux parent strain; format: cell-based; settings: geometric mean
Description: as §1

[1] = tested on: E. coli Δefflux (tolC efflux pump knocked-out); test: MIC broth microdilution, E. coli Δefflux strain (tolC knocked out); format: cell-based
Description: as §1

[2] = tested on: E. coli isogenic strain empty vector; test: MIC broth microdilution, E. coli isogenic strain, empty vector; format: cell-based; settings: Table 2
Description: as §1

[3] = tested on: E. coli isogenic strain aac(6′)-Ib; test: MIC broth microdilution, E. coli isogenic strain aac(6′)-Ib; format: cell-based; settings: Table 2
Description: as §1

[4] = tested on: E. coli isogenic strain aph(3′)-II; test: MIC broth microdilution, E. coli isogenic strain aph(3′)-II; format: cell-based; settings: Table 2
Description: as §1

[5] = tested on: E. coli isogenic strain aph(3′)-Ia; test: MIC broth microdilution, E. coli isogenic strain aph(3′)-Ia; format: cell-based; settings: Table 2; aph(3′)-Ia has activity at both the 3′-hydroxy and 5″-hydroxy positions
Description: as §1

[6] = tested on: E. coli isogenic strain ant(4′)-Ia; test: MIC broth microdilution, E. coli isogenic strain ant(4′)-Ia; format: cell-based; settings: Table 2
Description: as §1

[7] = tested on: E. coli isogenic strain armA; test: MIC broth microdilution, E. coli isogenic strain armA; format: cell-based; settings: Table 2
Description: as §1

[8] = tested on: E. coli isogenic strain nmpA; test: MIC broth microdilution, E. coli isogenic strain nmpA; format: cell-based; settings: Table 2
Description: as §1

P. aeruginosa ATCC 27853 = test: MIC broth microdilution, P. aeruginosa ATCC 27853; format: cell-based; settings: Table 1; geometric mean
Description: as §1

[9] = tested on: P. aeruginosa efflux parent; test: MIC broth microdilution, P. aeruginosa efflux parent strain; format: cell-based; settings: Table 1; geometric mean
Description: as §1

[10] = tested on: P. aeruginosa Δefflux (MexAB-OprM, MexCD-OprJ, MexEF-OprN knocked out); test: MIC broth microdilution, P. aeruginosa Δefflux strain; format: cell-based; settings: Table 1, MexEF-OprN efflux pumps knocked out
Description: as §1

translation = test: Translation Inhibition Assay; format: biochemical; settings: Table 1
From the text: Biological Example 2: Translation Inhibition Assay

| Compound | Geometric Mean MIC values, E. coli ATCC 25922 (E. coli ATCC 25922; Table 2) | Geometric Mean MIC values, E. coli efflux parent (E. coli efflux parent; Table 2) | Geometric Mean MIC values, E. coli Δefflux ([1]; Table 2) | Geometric Mean MIC values, E. coli isogenic strains, empty vector [2] | Geometric Mean MIC values, E. coli isogenic strains, aac(6′)-Ib [3] | Geometric Mean MIC values, E. coli isogenic strains, aph(3′)-II [4] | Geometric Mean MIC values, E. coli isogenic strains, aph(3′)-Ia [5] | Geometric Mean MIC values, E. coli isogenic strains, ant(4′)-Ia [6] | Geometric Mean MIC values, E. coli isogenic strains, armA [7] | Geometric Mean MIC values, E. coli isogenic strains, nmpA [8] | Geometric Mean MIC values, E. coli ATCC 25922 (E. coli ATCC 25922; Table 1) | Geometric Mean MIC values, E. coli efflux parent (E. coli efflux parent; Table 1) | Geometric Mean MIC values, E. coli Δefflux ([1]; Table 1) | Geometric Mean MIC values, P. aeruginosa ATCC 27853 (P. aeruginosa ATCC 27853) | Geometric Mean MIC values, P. aeruginosa efflux parent [9] | Geometric Mean MIC values, P. aeruginosa Δefflux [10] | IC50 (translation) |
| --- | --- | --- | --- | --- | --- | --- | --- | --- | --- | --- | --- | --- | --- | --- | --- | --- | --- |
| NCC1OC(OC2C(CO)OC(OC3C(O)C(N)CC(N)C3OC3OC(CN)C(F)(F)C(O)C3N)C2O)C(N)C(O)C1O (centres unmarked) | 2 µg/mL | 2 µg/mL | 1 µg/mL | 1.4 µg/mL | 16 µg/mL | 4 µg/mL | >64 µg/mL | 1 µg/mL | 4 µg/mL | 64 µg/mL | – | – | – | – | – | – | – |
| NC[C@@H]1O[C@H](O[C@H]2[C@@H](O)[C@H](O[C@@H]3[C@@H](O)[C@H](N)C[C@H](N)[C@H]3O[C@H]3O[C@H](CN)[C@@H](O)[C@H](O)[C@H]3N)O[C@@H]2CO)[C@H](N)[C@@H](O)[C@@H]1O [NEO, neomycin B, reference compound] | 1 µg/mL | 0.76 µg/mL | 0.79 µg/mL | 0.64 µg/mL | 1.6 µg/mL | 18 µg/mL | >64 µg/mL | 2.2 µg/mL | 0.75 µg/mL | 80 µg/mL | – | – | – | – | – | – | – |
| CCC(N)C1CCC(N)C(OC2C(N)CC(N)C(O)C2OC2OC(CO)C(OC3OC(CN)C(O)C(O)C3N)C2O)O1 (centres unmarked) [drawing 851] | – | – | – | – | – | – | – | – | – | – | 2 µg/mL | 2 µg/mL | 1 µg/mL | 2 µg/mL | 2 µg/mL | 0.5 µg/mL | 32 nM |
| CCC(N)C1CCC(N)C(OC2C(N)CC(N)C(O)C2OC2OC(CO)C(OC3OC(CN)C(O)C(O)C3N)C2O)O1 (centres unmarked) [drawing 852] | – | – | – | – | – | – | – | – | – | – | 1 µg/mL | 2 µg/mL | 1 µg/mL | 1 µg/mL | 2 µg/mL | 0.5 µg/mL | 26 nM |
| NCC1OC(OC2C(CO)OC(OC3C(O)C(N)CC(N)C3OC3OC(CN)C(O)C(F)C3N)C2O)C(N)C(O)C1O (centres unmarked) [drawing 853] | – | – | – | – | – | – | – | – | – | – | 2 µg/mL | 2 µg/mL | 1 µg/mL | 1 µg/mL | 2 µg/mL | 0.5 µg/mL | 10 nM |
